Columns and labels:
Format in all cases: cell-based, mouse
[1] = tested on: α7 integrin (LacZ reporter in α7+/LacZ myotubes); test: Myotube α7 integrin FDG assay (Burkin assay in myotubes, 96-well); conditions: for dose-response curve in myotubes: hits of Prestwick/Microsource screens
[2] = tested on: β-galactosidase in CMV-LacZ C2C12 myotubes; test: CMV-LacZ secondary screen in C2C12 myotubes (β-Gal stabilizing assay); conditions: C2C12 CMV-LacZ myotubes, fold relative to DMSO
Description: In order to determine compounds that acted to stabilize β-gal in myogenic cells, a CMV-LacZ C2C12 cell line was used in a secondary screen. The EGFP gene from the pEGFP (Clontech) vector was replaced by LACZ PCR product with digests of the vector/PCR product performed using EcoRI (NEB) and NotI (NEB) and ligated using T4 DNA Ligase (NEB) following standard procedures to produce the CMV-LACZ vector. The LACZ gene was generated by PCR from the pBK-RSV (Stratagene) vector using primers LACZ EcoRI F- and LACZ NotI R-. The CMV-LACZ vector was then digested with AfIII (NEB) to linearize the construct, which was then transfected in C2C12 myoblasts using Lipofectamine 2000 (Invitrogen) following the manufacturer's instructions. […] Clonal lines were selected and screened for βgal levels using the myoblast FDG assay.
The assays were used the original 96-well format and new dose-response curves for myoblasts (N=3-6 replicates for each data point), myotubes (N=3-6 replicates for data point), and CMV-LacZ secondary assay (N=2 replicates for each data point) using concentrations of 0.5 μM, 1 μM, 5 μM, 10 μM, 20 μM, and 40 μM (Tables 9-16).

[3] = tested on: α7 integrin (LacZ reporter in α7βgal+/− myoblasts); test: Myoblast α7+/LacZ integrin FDG assay (Burkin assay in myoblasts, 96-well); conditions: for Burkin Assay in Myoblasts, signal relative to DMSO / Burkin Assay in Myoblasts, value relative to DMSO: α7+/LacZ myoblasts, 96-well
[4] = Mus musculus, Myotube, read-out: Burkin Assay in Myotubes, α7 integrin LacZ reporter signal relative to DMSO
[5] = Mus musculus, Myoblast, 48 h, read-out: Burkin Assay in Myoblasts, signal relative to DMSO

| Compound | CMV-LACZ in Myotubes, signal relative to DMSO ([2]; 5 uM) | CMV-LACZ in Myotubes, signal relative to DMSO ([2]; 10 uM) | CMV-LACZ in Myotubes, signal relative to DMSO ([2]; 20 uM) | CMV-LACZ in Myotubes, signal relative to DMSO ([2]; 40 uM) | Burkin Assay in Myotubes (signal relative to DMSO) ([1]; 0.5 uM) | Burkin Assay in Myotubes (signal relative to DMSO) ([1]; 1 uM) | Burkin Assay in Myotubes (signal relative to DMSO) ([1]; 5 uM) | Burkin Assay in Myotubes (signal relative to DMSO) ([1]; 10 uM) | Burkin Assay in Myotubes (signal relative to DMSO) ([1]; 20 uM) | Burkin Assay in Myotubes (signal relative to DMSO) ([1]; 40 uM) | Burkin Assay in Myoblasts, value relative to DMSO ([3]; 0.5 uM) | Burkin Assay in Myoblasts, value relative to DMSO ([3]; 1 uM) | Burkin Assay in Myoblasts, value relative to DMSO ([3]; 5 uM) | Burkin Assay in Myoblasts, value relative to DMSO ([3]; 10 uM) | Burkin Assay in Myoblasts, value relative to DMSO ([3]; 20 uM) | Burkin Assay in Myoblasts, value relative to DMSO ([3]; 40 uM) | also measured |
| --- | --- | --- | --- | --- | --- | --- | --- | --- | --- | --- | --- | --- | --- | --- | --- | --- | --- |
| c1ccc(-c2ccccn2)nc1 [2,2-Dipyridyl, reference compound] |  |  |  |  |  |  |  |  |  |  |  |  |  |  |  |  | dose-response curve in myotubes [1]: positive dose-response curves |
| CC(C)CCC[C@@H](C)[C@H]1CC[C@H]2[C@@H]3CC(=O)[C@H]4C[C@@H](O)CC[C@]4(C)[C@H]3CC[C@]12C [5alpha-cholestan-3β-ol-6-one, reference compound] |  |  |  |  |  |  |  |  |  |  |  |  |  |  |  |  | dose-response curve in myotubes [1]: positive dose-response curve |
| Cc1cc(C2CCCCC2)n(O)c(=O)c1 [Ciclopirox ethanolamine, reference compound] |  |  |  |  |  |  |  |  |  |  |  |  |  |  |  |  | dose-response curve in myotubes [1]: positive dose-response curves |
| CCc1nnc(NC(=O)c2ccc(S(=O)(=O)NCC(C)C)cc2)s1 [MLS000027478-01] | 0.9489 | 0.924 | 0.9443 | 0.979 |  |  |  |  |  |  |  |  |  |  |  |  | Burkin Assay in Myotubes, α7 integrin LacZ reporter signal relative to DMSO ([1]; 0.5 uM): 1.0222; Burkin Assay in Myotubes, α7 integrin LacZ reporter signal relative to DMSO ([1]; 1 uM): 0.9043; Burkin Assay in Myotubes, α7 integrin LacZ reporter signal relative to DMSO ([1]; 5 uM): 0.984; Burkin Assay in Myotubes, α7 integrin LacZ reporter signal relative to DMSO ([1]; 10 uM): 0.9583; Burkin Assay in Myotubes, α7 integrin LacZ reporter signal relative to DMSO ([1]; 20 uM): 0.9854; Burkin Assay in Myotubes, α7 integrin LacZ reporter signal relative to DMSO ([1]; 40 uM): 0.9115; Burkin Assay in Myoblasts, signal relative to DMSO ([3]; 0.5 uM): 0.9552; Burkin Assay in Myoblasts, signal relative to DMSO ([3]; 1 uM): 0.9044; Burkin Assay in Myoblasts, signal relative to DMSO ([3]; 5 uM): 0.9721; Burkin Assay in Myoblasts, signal relative to DMSO ([3]; 10 uM): 0.9209; Burkin Assay in Myoblasts, signal relative to DMSO ([3]; 20 uM): 0.9145; Burkin Assay in Myoblasts, signal relative to DMSO ([3]; 40 uM): 0.816 |
| CCOCCCN1C(=O)CN(C2CCCCCC2)C(=O)C1c1ccc(OC)cc1 (stereo not drawn) [MLS000046123-01] | 0.9124 | 1.084 | 1.145 | 1.076 | 0.9802 | 0.9389 | 0.8905 | 0.865 | 0.9268 | 0.9203 | 1.049 | 0.9808 | 0.9565 | 1.007 | 1.002 | 0.9894 |  |
| Cc1nc2c([nH]1)OC(N)=C(C#N)C21CCN(Cc2ccccc2)CC1 [MLS000047918-01] |  |  |  |  |  |  |  |  |  |  |  |  |  |  |  |  | fold induction at 0.5 µM [1, 4]: 1.4; fold induction at 1 µM [1, 4]: 0.913; fold induction at 5 µM [1, 4]: 0.899; fold induction at 10 µM [1, 4]: 0.872; fold induction at 20 µM [1, 4]: 0.967; fold induction at 40 µM [1, 4]: 0.945; fold induction at 5 µM ([2]; Mus musculus, C2C12, read-out: CMV-LACZ in Myotubes, signal relative to DMSO, 5 uM): 0.937; fold induction at 10 µM ([2]; Mus musculus, C2C12, read-out: CMV-LACZ in Myotubes, signal relative to DMSO, 10 uM): 0.8; fold induction at 20 µM ([2]; Mus musculus, C2C12, read-out: CMV-LACZ in Myotubes, signal relative to DMSO, 20 uM): 1.04; fold induction at 40 µM ([2]; Mus musculus, C2C12, read-out: CMV-LACZ in Myotubes, signal relative to DMSO, 40 uM): 1.05; fold induction at 0.5 µM [3, 5]: 0.873; fold induction at 1 µM [3, 5]: 0.912; fold induction at 5 µM [3, 5]: 0.948; fold induction at 10 µM [3, 5]: 1; fold induction at 20 µM [3, 5]: 0.803; fold induction at 40 µM [3, 5]: 0.78 |
| OC1(c2ccccc2)C/C(=N\n2cnnc2)C=C1c1ccccc1 (stereo not drawn) [MLS000081838-01] | 0.9175 | 0.8889 | 1.018 | 0.9697 | 0.7425 | 1.018 | 0.9002 | 0.8704 | 1.225 | 1.036 | 1.0627 | 1.047 | 0.9611 | 0.9253 | 0.9822 | 0.9234 |  |
| CC(=O)Nc1nonc1-c1nc2ccccc2n1CCC(C)C [MLS000085522-01] | 1.092 | 0.9804 | 0.7733 | 0.9509 |  |  |  |  |  |  |  |  |  |  |  |  | Burkin Assay in Myotubes, α7 integrin LacZ reporter signal relative to DMSO ([1]; 0.5 uM): 0.9622; Burkin Assay in Myotubes, α7 integrin LacZ reporter signal relative to DMSO ([1]; 1 uM): 0.8415; Burkin Assay in Myotubes, α7 integrin LacZ reporter signal relative to DMSO ([1]; 5 uM): 0.872; Burkin Assay in Myotubes, α7 integrin LacZ reporter signal relative to DMSO ([1]; 10 uM): 0.9249; Burkin Assay in Myotubes, α7 integrin LacZ reporter signal relative to DMSO ([1]; 20 uM): 1.029; Burkin Assay in Myotubes, α7 integrin LacZ reporter signal relative to DMSO ([1]; 40 uM): 0.556; Burkin Assay in Myoblasts, signal relative to DMSO ([3]; 0.5 uM): 0.9927; Burkin Assay in Myoblasts, signal relative to DMSO ([3]; 1 uM): 0.872; Burkin Assay in Myoblasts, signal relative to DMSO ([3]; 5 uM): 1.118; Burkin Assay in Myoblasts, signal relative to DMSO ([3]; 10 uM): 0.9531; Burkin Assay in Myoblasts, signal relative to DMSO ([3]; 20 uM): 0.9728; Burkin Assay in Myoblasts, signal relative to DMSO ([3]; 40 uM): 0.7481 |
| Cc1cc(C)cc(-n2nnc(C(=O)NCc3ccccc3Cl)c2N)c1 [MLS000094770-01] | 0.8081 | 0.9406 | 0.9412 | 0.8421 | 1.14 | 1 | 1.317 | 0.823 | 0.8175 | 0.7119 | 1.021 | 0.9676 | 0.9491 | 0.9866 | 0.7999 | 0.6762 |  |
| Cc1cc(-c2ccccc2)n2nc(N)nc2n1 [MLS000122180-01] | 0.7773 | 0.8808 | 0.8136 | 1.007 | 1.006 | 0.9341 | 1.027 | 0.7456 | 0.9557 | 0.9496 | 0.8023 | 0.8424 | 0.9726 | 0.9665 | 1.004 | 0.9116 |  |
| O=C(c1cccs1)N(Cc1ccco1)c1nc(-c2ccc(F)cc2)cs1 [MLS000122749-01] | 1.022 | 1.063 | 0.808 | 1.0025 |  |  |  |  |  |  |  |  |  |  |  |  | Burkin Assay in Myotubes, α7 integrin LacZ reporter signal relative to DMSO ([1]; 0.5 uM): 1.042; Burkin Assay in Myotubes, α7 integrin LacZ reporter signal relative to DMSO ([1]; 1 uM): 0.9982; Burkin Assay in Myotubes, α7 integrin LacZ reporter signal relative to DMSO ([1]; 5 uM): 1.096; Burkin Assay in Myotubes, α7 integrin LacZ reporter signal relative to DMSO ([1]; 10 uM): 1.131; Burkin Assay in Myotubes, α7 integrin LacZ reporter signal relative to DMSO ([1]; 20 uM): 1.256; Burkin Assay in Myotubes, α7 integrin LacZ reporter signal relative to DMSO ([1]; 40 uM): 0.9306; Burkin Assay in Myoblasts, signal relative to DMSO ([3]; 0.5 uM): 1.113; Burkin Assay in Myoblasts, signal relative to DMSO ([3]; 1 uM): 1.04; Burkin Assay in Myoblasts, signal relative to DMSO ([3]; 5 uM): 1.026; Burkin Assay in Myoblasts, signal relative to DMSO ([3]; 10 uM): 1.116; Burkin Assay in Myoblasts, signal relative to DMSO ([3]; 20 uM): 1.185; Burkin Assay in Myoblasts, signal relative to DMSO ([3]; 40 uM): 0.948 |
| CCCC(=O)[O-].[Na+] [sodium butyrate, reference compound] |  |  |  |  |  |  |  |  |  |  |  |  |  |  |  |  | β-galactosidase levels ([1]; treatments of ~1.5 mM, preliminary screens): increase β-galactosidase levels |
